Consider one molecule from US20200316096A1, “COMBINATION OF DIET AND DRUG THERAPY FOR TREATING CANCER” (Trustees of Boston College, priority 2019, published 2020).

In data set [1] the test system is VM-M3 tumour cells. The data set can be described thus: VM-M3 brain tumour histology (H&E) and Ki-67 staining. The note with it: compared with SD-UR brains. It is filed as in vivo, mouse (VM/Dk).
Data set [2] is described as follows: LC/MS/MS analysis of DON in plasma and VM-M3 brain tumour tissue. It is filed as in vivo, mouse (VM/Dk). The note with it: for concentration of DON in VM-M3 tumour tissue, mice fed KD-R versus mice fed SD-UR: 60 min after i.p. DON 1.0 mg/kg. The procedure:
FIGS. 4A and 4B. Restricted Ketogenic diet increases DON delivery to the VM-M3 GBM. The content of DON in the VM-M3 brain tumour tissue was quantified using two LC/MS/MS procedures, as described in Methods. The brain tissue was analyzed for DON content 60 minutes after i.p. DON injection. The values in experiment a are presented as mean of two independent samples, while the values in experiment b are presented as the mean±SEM (n=3). The difference between the two groups in experiment b was significant (P<0.01).
Plasma and brain tissues were prepared for DON analysis one hour after systemic DON injection, as described in Methods below. […] In another independent experiment, using a similar analytical system, the concentration of DON in the VM-M3 tumour tissue was about 3-fold greater in mice fed the KD-R than in mice fed the SD-UR (FIG. 4B). In both methods of measurement, DON delivery to the brain was greater in the mice fed the KD-R than in the mice fed the SD-UR (FIGS. 4A and 4B). DON was detected in plasma 10 min after i.p. injection (data not shown) and was detected in brain tissue 60 min following injection. These findings indicate that the KD-R facilitated delivery of DON to the VM-M3 tumour tissue.
Two independent LC-MS instruments and procedures were used to measure the amount of DON in the blood and in the VM-M3 tumour tissues. This was done to validate the accuracy of the procedures. A Triple quad method (Agilent 6460) was used to analyze DON in the first procedure (FIG. 4A). Mice were injected with 1.0 mg/kg of DON at either 10 min or 60 min before collection of the brains and blood. The brains were immediately flash frozen. Blood samples were collected before removal of the brain. 3N HCl+n-butanol (250 μl) was added to 50 μl of plasma, vortexed and then centrifuged at 16,000×g for 5 min to precipitate proteins. A 200 μl aliquot of the supernatant was transferred to a 1.5 ml tube and incubated at 60° C. for 30 min in a shaking water bath to perform the DON derivatization reaction. For the brain tissue, 5 μl of n-butanol containing 3N HCl was added per milligram tissue. The tissue sample was then homogenized with a glass pestle and was then vortexed and centrifuged, and prepared similarly to the plasma samples. Standard solutions were prepared by serial dilution to generate concentrations from 10 nM to 100 μM. DON was added to untreated mouse plasma or brain tissue to generate an internal standard curve. A high-resolution LC-MS QToF method (Agilent 6550) was used to analyze DON in the second procedure (FIG. 4B). Mice were injected with DON as above. Pre-weighed frozen brain tissue was transferred to a tube containing ceramic beads (Omni tubes). 3M HCl+butanol was added at a concentration of 5 μI/mg of tissue. […]

For data set [3] the following is noted: shown previously (ref 33); cited from earlier work.
Data set [4] in a line: Toxicity and body weight observations in DON treated mice. The class given is in vivo, mouse. Here is the method: FIG. 11. Body weights of VM-M3 tumour bearing mice. VM-M3/Fluc tumour fragments were implanted as described in FIGS. 1A-1F. Body weight was determined every alternate day. Initial and final body weight data are presented. Mice fed the SD-UR began to drop body weight on the day of termination due to tumour burden. Mice fed the KD-R maintained a 15-18% body weight reduction throughout the experiment due to reduced caloric intake. Initial and final body weights were similar in the SD-UR and the SD-UR+DON mice (n=15 mice/group). Final body weights were lower than initial body weights in the KD-R and the KD-R+DON mice (n=15 mice/each group). Values are expressed as the mean+/−SEM and a two tailed student's t-test was performed between the initial and final values of each group (*=p<0.01).
It is proposed that issues with DON toxicity arise when there is an appreciable competition for glutamine between host and tumour. There is also increasing evidence supporting the protective role of glutamine supplementation for cancer patients^46. Since tumour consumption of glutamine is dissipative, glutamine supplementation might not increase tumour growth^46. However, additional preclinical studies are needed to determine if glutamine supplementation could be used together with DON. The present disclosure provides that strategies for managing toxicity of a therapeutically effective drug would be as important as developing a new drug.
The following studies were to determine if the simultaneous targeting of glucose and glutamine, while under therapeutic ketosis, could manage late stage growth and enhance survival without toxicity in two different syngeneic mouse models of GBM. DON was administered 7 days after tumour implantation, which is considered late for the VM-M3/Fluc tumour, as neurological signs and symptoms first appear at 10 to 12 days post implantation with morbidity occurring in 100% of the tumour-bearing mice by 14-18 days^2. Additional results were obtained in C57BL/6J inbred mice bearing the syngeneic CT-2A high-grade stem cell glioma^32. […]

`[N-]=[N+]=CC(=O)CC[C@H](N)C(=O)O` [DON, 6-diazo-5-oxo-L-norleucine]: in data set [1], the “histology (H&E) of primary tumour” value is reported as “significant area of dead cells”. Also, the DON in plasma result in data set [2] (10 min after i.p. injection) is listed as “detected”. Moreover, the “DON in brain tissue” value in data set [2] (60 min following injection) is “detected”. The “concentration of DON in VM-M3 tumour tissue, mice fed KD-R versus mice fed SD-UR” value in data set [2] (first procedure (FIG. 4A)) is given as “about 2 fold”; in data set [2] (independent experiment (FIG. 4B)), “about 3 fold”. Besides, the “toxic effects in C57BL/6J mice” value in data set [3] is “no toxic effects”. Besides, in data set [4] (DON at the concentrations used in this study), the “toxic effects in non-tumour-bearing VM/Dk mice” value was “no toxic effects”. In data set [4] (VM-M3 tumour bearing mice, n=15 mice/group), the “initial versus final body weight” value is given as “similar”. In addition, in data set [4] (until end of study, when mild muscle loss was observed in some mice), the “toxicity in DON treated tumour-bearing mice” value was “No noticeable toxicity”.
